# Measurements taken from patent US9486398B2, “Composition” (J-OIL MILLS, INC., priority 2012, dated 2016).
# “Also recorded” adds a separate entry of the source.
# Tested on: hairless mice Hos:HR1
# Experiment: Stratum corneum water-retaining function (moisture in the keratin, corneometer, back skin)
# Type: in vivo
# Settings: intragastric once a day for 28 days, menaquinone-7 10 mg/kg, collagen hydrolysate 80 mg/kg, soyasapogenol 50 mg/kg
# Experimental: In addition to the reference diet, the test substances shown in Table 6 were administered to the study groups in Examples and Comparative Examples. By dissolving the test substances in a 0.5% carboxymethyl cellulose sodium solution (hereinafter referred to as CMC-Na solution), the composition (skin function improving agent) was prepared.
# Forty two hairless mice Hos:HR1 (male, 5-week old) were prepared. Through the 1-week acclimation period and the test period, the mice were freely fed a reference diet (product name: CRF-1, manufactured by Oriental Yeast Co., Ltd.) and water. The insolation condition was set to day and night every 12 hours. After the acclimation period, grouping of 6 mice/group was performed so that the body weight between groups was homogenous.
# Continuous and forced intragastric administration of the above composition was performed to the mice once a day for 28 days using a stomach tube. The reference diet and 0.05 mL per 10 g of body weight of a 0.5% CMC-Na solution were administered to the control group.
# The keratin usually contains 20% to 30% of water. […] By measuring the moisture in the keratin, the stratum corneum water-retaining function (i.e., skin moisture-retaining function) of a skin function improving agent can be evaluated. […]
compound,measurement,setting,value
"CC(C)=CCC/C(C)=C/CC/C(C)=C/CC/C(C)=C/CC/C(C)=C/CC/C(C)=C/CC/C(C)=C/CC1=C(C)C(=O)c2ccccc2C1=O [Comparative Example 1, menaquinone-7]","keratin moisture fluctuation value (moisture in the keratin, day 28 minus day before administration)",,no function of keratin water retention; also recorded: no stratum corneum water-retaining function
same,"keratin moisture fluctuation value (moisture in the keratin, day 28 minus day before administration)",listed as menaquinone-7,does not exert the keratin water-retaining function; also recorded: does not exert the stratum corneum water-retaining function
